# Data: PubChem BioAssay (NCI)
#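 Dose response: 5 concentrations. Exposure: 48 h. Format: 96-well plates. Endpoint: linear interpolation; highest concentration if not reached. GI50 is the concentration that inhibits growth by half. The concentration for full growth arrest is given as TGI.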
# Legend:
# Experiment in all cases: DTP human tumour cell line panel, 48 h
# [1] = test system: NCI-H226 lung
# [2] = test system: SF-268 CNS
# [3] = test system: U251 CNS
# [4] = test system: KM12 colon
# [5] = test system: HOP-92 NSCLC
# [6] = test system: HT29 colon
# [7] = test system: NCI/ADR-RES ovarian
# [8] = test system: SW-620 colon
# [9] = test system: BT-549 breast
# [10] = test system: SK-MEL-28 melanoma
# [11] = test system: HL-60(TB) leukemia
# [12] = test system: CCRF-CEM leukemia
# [13] = test system: IGROV1 ovarian
# [14] = test system: HCT-15 colon
# [15] = test system: RXF 393 renal
# [16] = test system: SN12C renal
# [17] = test system: EKVX NSCLC
# [18] = test system: MALME-3M melanoma
# [19] = test system: MCF7 breast
# [20] = test system: TK-10 renal
# [21] = test system: OVCAR-3 ovarian
# [22] = test system: SF-295 CNS
# [23] = test system: SNB-19 CNS
# [24] = test system: SK-OV-3 ovarian
# [25] = test system: LOX IMVI melanoma
# [26] = test system: CAKI-1 renal
# [27] = test system: HS 578T breast
# [28] = test system: SK-MEL-2 melanoma
# [29] = test system: DU-145 prostate
# [30] = test system: SNB-75 CNS
# [31] = test system: T-47D breast
# [32] = test system: A498 renal
# [33] = test system: HCT-116 colon
# [34] = test system: NCI-H460 lung
# [35] = test system: ACHN renal
# [36] = test system: COLO 205 colon
# [37] = test system: PC-3 prostate
# [38] = test system: OVCAR-5 ovarian
# [39] = test system: UACC-257 melanoma
# [40] = test system: OVCAR-8 ovarian
# [41] = test system: M14 melanoma
# [42] = test system: SF-539 CNS
# [43] = test system: 786-0 renal
# [44] = test system: OVCAR-4 ovarian
# [45] = test system: HOP-62 NSCLC
# [46] = test system: K-562 leukemia
# [47] = test system: MDA-MB-435
# [48] = test system: SK-MEL-5 melanoma
# [49] = test system: MOLT-4 leukemia
# [50] = test system: MDA-MB-468 breast
# [51] = test system: A549 NSCLC
# [52] = test system: HCC-2998 colon
# [53] = test system: NCI-H522 lung
# [54] = test system: NCI-H23 lung
# [55] = test system: UACC-62 melanoma
# [56] = test system: RPMI-8226 leukemia
compound,measurement,setting,value
Cc1cc(C)cc(Oc2cccc(-c3c(C)nnn3C3CCN(CCN(C)C)CC3)n2)c1,GI50,[1],2.44 µM
same,TGI,[1],17.2 µM
same,GI50,[2],4.56 µM
same,TGI,[2],20.1 µM
same,GI50,[3],3.16 µM
same,TGI,[3],15.3 µM
same,GI50,[4],2.72 µM
same,TGI,[4],16.6 µM
same,GI50,[5],0.455 µM
same,TGI,[5],15.4 µM
same,GI50,[6],0.742 µM
same,TGI,[6],5.54 µM
same,GI50,[7],2.63 µM
same,TGI,[7],14.3 µM
same,GI50,[8],2.73 µM
same,TGI,[8],16.2 µM
same,GI50,[9],1.67 µM
same,TGI,[9],3.65 µM
same,GI50,[10],3.9 µM
same,TGI,[10],18.7 µM
same,GI50,[11],0.134 µM
same,TGI,[11],1.18 µM
same,GI50,[12],0.951 µM
same,TGI,[12],5.13 µM
same,GI50,[13],5.15 µM
same,TGI,[13],18.7 µM
same,GI50,[14],1.41 µM
same,TGI,[14],11.2 µM
same,GI50,[15],3.52 µM
same,TGI,[15],12.6 µM
same,GI50,[16],4.27 µM
same,TGI,[16],18.6 µM
same,GI50,[17],4.8 µM
same,TGI,[17],21.1 µM
same,GI50,[18],2.08 µM
same,TGI,[18],13.7 µM
same,GI50,[19],0.715 µM
same,TGI,[19],12.3 µM
same,GI50,[20],0.707 µM
same,TGI,[20],13.1 µM
same,GI50,[21],1.66 µM
same,TGI,[21],6.66 µM
same,GI50,[22],4.72 µM
same,TGI,[22],19.4 µM
same,GI50,[23],5.51 µM
same,TGI,[23],20.8 µM
same,GI50,[24],0.893 µM
same,TGI,[24],3.52 µM
same,GI50,[25],1.28 µM
same,TGI,[25],7.21 µM
same,GI50,[26],0.745 µM
same,TGI,[26],15.6 µM
same,GI50,[27],1.77 µM
same,TGI,[27],9.43 µM
same,GI50,[28],2.4 µM
same,TGI,[28],12.5 µM
same,GI50,[29],12.3 µM
same,TGI,[29],34 µM
same,GI50,[30],0.59 µM
same,TGI,[30],8.53 µM
same,GI50,[31],2 µM
same,TGI,[31],24.3 µM
same,GI50,[32],1.45 µM
same,TGI,[32],7.52 µM
same,GI50,[33],1.41 µM
same,TGI,[33],10.1 µM
same,GI50,[34],2.45 µM
same,TGI,[34],13.1 µM
same,GI50,[35],2.01 µM
same,TGI,[35],15.7 µM
same,GI50,[36],0.632 µM
same,TGI,[36],10.8 µM
same,GI50,[37],2.07 µM
same,TGI,[37],17.2 µM
same,GI50,[38],3.61 µM
same,TGI,[38],22.1 µM
same,GI50,[39],1.48 µM
same,TGI,[39],15.8 µM
same,GI50,[40],1.88 µM
same,TGI,[40],13.7 µM
same,GI50,[41],1.08 µM
same,TGI,[41],11.5 µM
same,GI50,[42],1.71 µM
same,TGI,[42],8.22 µM
same,GI50,[43],0.939 µM
same,TGI,[43],3.89 µM
same,GI50,[44],3.1 µM
same,TGI,[44],21 µM
same,GI50,[45],1.13 µM
same,TGI,[45],12.9 µM
same,GI50,[46],0.671 µM
same,TGI,[46],6.82 µM
same,GI50,[47],1.6 µM
same,TGI,[47],14.3 µM
same,GI50,[48],1.4 µM
same,TGI,[48],4.95 µM
same,GI50,[49],1.85 µM
same,TGI,[49],6.74 µM
same,GI50,[50],1.07 µM
same,TGI,[50],3.73 µM
same,GI50,[51],1.46 µM
same,TGI,[51],12.9 µM
same,GI50,[52],4.15 µM
same,TGI,[52],17.8 µM
same,GI50,[53],1.23 µM
same,TGI,[53],4.41 µM
same,GI50,[54],3.43 µM
same,TGI,[54],16.1 µM
same,GI50,[55],0.554 µM
same,TGI,[55],5.24 µM
same,GI50,[56],0.378 µM
same,TGI,[56],2.78 µM
